In patent publication US20080275035A1 (priority 2005, published 2008):
In brackets after ≈: the same amount, converted by molar mass.

System: not given
Experiment: not given

First: O=C(CO[C@@H]1COc2nc([N+](=O)[O-])cn2C1)Nc1nc(-c2ccc(OC(F)(F)F)cc2)cs1
Second: O=C(CO[C@@H]1COc2nc([N+](=O)[O-])cn2C1)Nc1ccc(OC(F)(F)F)cc1
The melting point of the first is lower: 120 to 121 °C for the first, 157 to 158 °C for the second.

Compared with O=[N+]([O-])c1cn2c(n1)OC[C@@H](OCc1ccc(-c3nc4cc(OC(F)(F)F)ccc4[nH]3)cc1)C2, O=[N+]([O-])c1cn2c(n1)OCC(OCc1ccc(-c3nc4cc(OC(F)(F)F)ccc4o3)cc1)C2 (stereo not drawn) is higher in melting point: 98 to 99 °C for the first, 187 to 188 °C for the second.

First: O=C(CO[C@@H]1COc2nc([N+](=O)[O-])cn2C1)N1CCC(c2nc3cc(OC(F)(F)F)ccc3[nH]2)CC1
Second: O=C(CO[C@@H]1COc2nc([N+](=O)[O-])cn2C1)N1CCN(c2ccc(OC(F)(F)F)cc2)CC1
The melting point of the first is higher: 131 to 132 °C for the first, 77 to 79 °C for the second.

Compared with O=[N+]([O-])c1cn2c(n1)OC[C@@H](OCc1csc(-c3ccc(OC(F)(F)F)cc3)n1)C2, O=[N+]([O-])c1cn2c(n1)OC[C@@H](OCc1nc3ccc(OC(F)(F)F)cc3[nH]1)C2 is lower in melting point: 140 to 141 °C for the first, 99 to 100 °C for the second.

First: O=[N+]([O-])c1cn2c(n1)OCC(OCc1ccc(OCc3ccc(F)cc3)cc1)C2 (stereo not drawn)
Second: O=C(CO[C@@H]1COc2nc([N+](=O)[O-])cn2C1)NCc1ccc(OC(F)(F)F)cc1
The melting point of the first is higher: 150.2 to 150.9 °C for the first, 110 to 111 °C for the second.

First: O=C(CO[C@@H]1COc2nc([N+](=O)[O-])cn2C1)Nc1nc2ccc(OC(F)(F)F)cc2s1 (stereo in doubt)
Second: O=[N+]([O-])c1cn2c(n1)OC[C@@H](OCc1nc3ccc(C(F)(F)F)cc3[nH]1)C2
The melting point of the first is lower: 89 to 90 °C for the first, 120 to 121 °C for the second.

Compared with O=C(CO[C@@H]1COc2nc([N+](=O)[O-])cn2C1)N1CCN(c2ccc(C(F)(F)F)cn2)CC1, O=C(CO[C@@H]1COc2nc([N+](=O)[O-])cn2C1)N1CCN(c2ccc(F)cc2)CC1 is lower in melting point: 189 to 190 °C for the first, 73 to 74 °C for the second.

System: Mycobacterium tuberculosis H37Rv (ATCC 27294)
Experiment: microbe, parasite or virus in culture
Type: cell-based

For [H]/N=C(/N)N[C@H]1[C@H](O)[C@@H](O)[C@H](O[C@@H]2O[C@@H](C)[C@](O)(C=O)[C@H]2O[C@@H]2O[C@@H](CO)[C@H](O)[C@@H](O)[C@@H]2NC)[C@@H](N/C(N)=N\[H])[C@@H]1O [streptomycin], the MIC was 0.25 µg/mL (≈ 0.43 µM).
